In patent US20260015337A1 (Trawsfynydd Therapeutics, Inc., priority 2022, published 2026):

The compounds below were run against 3CL Protease (Severe acute respiratory syndrome coronavirus 2, UniProt P0DTD1) (assay: 3CL Protease enzymatic activity assay (BPS Bioscience Assay Kit #78043-1, fluorescence)). Settings: Table A; 30 min preincubation, 40 μM substrate, 4 hours at room temperature; read-out: IC50, nM (3CL Protease enzymatic activity).
Type: biochemical, SARS-CoV-2
Procedure: For determination of 3CL Protease enzymatic activity was used Assay Kit of BPS Bioscience, San Diego, CA (Catalog #78043-1).
All samples and controls should be tested in duplicate. • 1) Just before use, dilute 0.5 M DTT 500 times into the 3CL Protease Assay Buffer to obtain a DTT concentration of 1 mM. For example, add 10 μl of 0.5 M DTT to 5 ml of assay buffer. Prepare enough DTT-containing buffer as required for the assay. Store the remaining assay buffer at −20° C. • 2) Thaw the 3CL Protease on ice. Briefly spin the tube containing the enzyme to recover the full content of the tube. Note: 3CL Protease enzyme is sensitive to freeze/thaw cycles. […] Note: The exact concentration and volume of enzyme is lot-specific and will be indicated on the tube. Calculate required dilution from the information in the tube. It may be desirable to dilute the enzyme serially to avoid using large amounts of protease assay buffer for the dilution. • 4) Add 30 μl of diluted 3CL Protease to the wells designated as “Positive Control,” “Inhibitor Control,” and “Test Inhibitor.” Add 30 μl of Assay Buffer (containing 1 mM DTT) to the “Blank” wells. • 5) Dilute the 50 μg GC376 in 200 μl of Assay Buffer to obtain a 500 μM solution. Add 10 μl of GC376 (500 μM) to the wells labeled “Inhibitor Control”. Aliquot and store the remaining solution at −80° C. • 6) Prepare the Test Inhibitor. The final concentration of DMSO in the assay should not exceed 1%. If the Test Inhibitor is dissolved in DMSO, make a 100-fold higher concentration of the compound than the highest desired concentration. Then make a 20-fold dilution in 1× Assay Buffer (containing DTT). At this step the compound concentration is 5-fold higher than the final concentration. If the test inhibitor is dissolved in water, make a 5-fold higher concentration of the test compound than the final desired concentration in the Assay buffer (containing DTT). Add 10 μl of Test Inhibitor to each well designated “Test Inhibitor”. • 7) Diluent Solution (no inhibitor): add 10 μl of assay buffer (if the test compound is water soluble and was diluted in assay buffer) or 10 μl of 5% DMSO diluted in assay buffer (if DMSO was used to dissolve the test inhibitor) to “Blank” and “Positive Control” wells.
• 8) Preincubate for 30 min at room temperature with slow shaking. • 9) Dilute the 25 μl of 3CL Protease substrate (10 mM) in 1.25 ml of the Assay Buffer containing DTT, to make a […] solution. The final concentration of the 3CL Protease substrate in a 50 μl reaction is 40 μM. • 10) Start the reaction by adding 10 μl of the substrate solution to all the wells. Seal the plate with the plate sealer and incubate for 4 hours at room temperature with slow shaking. • 11) Measure the fluorescence intensity in a microtiter plate-reader fluorometer (Tecan Spark Cyto) capable of excitation at a wavelength 360 nm and detection of emission at a wavelength 460 nm. The fluorescence intensity can also be measured kinetically. The “Blank” value is subtracted from all other values. • The % inhibition was then used to calculate the IC50 values.

| SMILES | IC50 |
| --- | --- |
| CC1(C)CCc2[nH]c(=O)c(CC(C#N)NC(=O)[C@@H]3C4[C@H](CN3C(=O)[C@@H](NC(=O)C(F)(F)F)C(C)(C)C)C4(C)C)cc2C1 (stereo in doubt) [Compound 127, (1R,2S,5S)—N-(1-Cyano-2-(6,6-dimethyl-2-oxo-1,2,5,6,7,8-hexahydroquinolin-3-yl)ethyl)-3-((S)-3,3-dimethyl-2-(2,2,2-trifluoroacetamido)butanoyl)-6,6-dimethyl-3-azabicyclo[3.1.0]hexane-2-carboxamide] | 500 to 1000 nM |
| Cc1ccc2[nH]c(=O)c(C[C@H](C#N)NC(=O)C3C4C(CN3C(=O)[C@H](NC(=O)OC(C)C)C(C)(C)C)C4(C)C)cc2c1 (stereo in doubt) [Compound 202, Isopropyl N-[(1R)-1-[(1S)-2-[[(1R)-1-cyano-2-(6-methyl-2-oxo-1H-quinolin-3-yl)ethyl]carbamoyl]-6,6-dimethyl-3-azabicyclo[3.1.0]hexane-3-carbonyl]-2,2-dimethyl-propyl]carbamate] | 100 to 250 nM |
| Cc1ccc2[nH]c(=O)c(CC(C#N)NC(=O)[C@@H]3[C@H]4[C@H](CN3C(=O)[C@@H](Nc3ccnc(C)n3)C(C)(C)C)C4(C)C)cc2c1 (stereo partly drawn) [Compound 153, 3-[3,3-Dimethyl-2-(2-methyl-pyrimidin-4-ylamino)-butyryl]-6,6-dimethyl-3-aza-bicyclo[3.1.0]hexane-2-carboxylic acid [1-cyano-2-(6-methyl-2-oxo-1,2-dihydro-quinolin-3-yl)-ethyl]-amide] | ≥ 1000 nM |
| Cc1ccc2[nH]c(=O)c(C[C@@H](C#N)N(C)C(=O)[C@@H]3[C@@H]4[C@H](CN3C(=O)[C@@H](NC(=O)C(F)(F)F)C(C)(C)C)C4(C)C)cc2c1 [Compound 183, (1R,2S,5S)-N-[(1S)-1-cyano-2-(6-methyl-2-oxo-1H-quinolin-3-yl)ethyl]-3-[(2S)-3,3-dimethyl-2-[(2,2,2-trifluoroacetyl)amino]butanoyl]-N,6,6-trimethyl-3-azabicyclo[3.1.0]hexane-2-carboxamide] | ≥ 1000 nM |
| Cc1ccc2[nH]c(=O)c(C[C@@H](C#N)NC(=O)[C@@H]3[C@@H]4[C@H](CN3C(=O)[C@@H](NC(=O)C(F)(F)F)C(C)(C)C)C4(C)C)c(C)c2c1 [Compound 178, (1R,2S,5S)—N—((S)-1-Cyano-2-(4,6-dimethyl-2-oxo-1,2-dihydroquinolin-3-yl)-ethyl)-3-((S)-3,3-dimethyl-2-(2,2,2-trifluoroacetamido)butanoyl)-6,6-dimethyl-3-azabicyclo[3.1.0]hexane-2-carboxamide] | 100 to 250 nM |
| Cc1ccc2[nH]c(=O)c(C[C@@H](C#N)NC(=O)[C@@H]3[C@@H]4[C@H](CN3C(=O)Cc3cc(C(F)(F)F)n[nH]3)C4(C)C)cc2c1 [Compound 191, (1R,2S,5S)—N—((S)-1-Cyano-2-(6-methyl-2-oxo-1,2-dihydroquinolin-3-yl)ethyl)-6,6-dimethyl-3-(2-(3-(trifluoromethyl)-1H-pyrazol-5-yl)acetyl)-3-azabicyclo[3.1.0]hexane-2-carboxamide] | ≥ 1000 nM |
| Cc1ccc2[nH]c(=O)c(CC(C#N)NC(=O)[C@@H]3C4[C@H](CN3C(=O)[C@@H](Nc3nc(C)cs3)C(C)(C)C)C4(C)C)cc2c1 (stereo in doubt) [Compound 151, (1R,2S,5S)—N-(1-Cyano-2-(6-methyl-2-oxo-1,2-dihydroquinolin-3-yl)ethyl)-3-((S)-3,3-dimethyl-2-((4-methylthiazol-2-yl)amino)butanoyl)-6,6-dimethyl-3-azabicyclo[3.1.0]hexane-2-carboxamide] | 500 to 1000 nM |
| Cc1ccc2[nH]c(=O)c(C[C@@H](C#N)NC(=O)[C@@H]3C4[C@H](CN3C(=O)[C@@H](Nc3ncc(C)s3)C(C)(C)C)C4(C)C)cc2c1 (stereo in doubt) [Compound 158, (1R,2S,5S)—N—((S)-1-Cyano-2-(6-methyl-2-oxo-1,2-dihydroquinolin-3-yl)ethyl)-3-((S)-3,3-dimethyl-2-((5-methylthiazol-2-yl)amino)butanoyl)-6,6-dimethyl-3-azabicyclo[3.1.0]hexane-2-carboxamide] | 50 to 100 nM |
| CC(C)(C)[C@H](NC(=O)C(F)(F)F)C(=O)N1C[C@H]2[C@@H]([C@H]1C(=O)NC(C#N)Cc1cc3ccccc3[nH]c1=O)C2(C)C (stereo partly drawn) [Compound 182, (1R,2S,5S)-N-[1-cyano-2-(2-oxo-1H-quinolin-3-yl)ethyl]-3-[(2S)-3,3-dimethyl-2-[(2,2,2-trifluoroacetyl)amino]butanoyl]-6,6-dimethyl-3-azabicyclo[3.1.0]hexane-2-carboxamide] | < 50 nM |
| CC(C)(C)[C@H](NC(=O)C(F)(F)F)C(=O)N1C[C@H]2[C@@H]([C@H]1C(=O)N[C@@H](C#N)Cc1cc3cnccc3[nH]c1=O)C2(C)C [Compound 173, (1R,2S,5S)—N—((R)-1-Cyano-2-(2-oxo-1,2-dihydro-1,6-naphthyridin-3-yl)ethyl)-3-((S)-3,3-dimethyl-2-(2,2,2-trifluoroacetamido)butanoyl)-6,6-dimethyl-3-azabicyclo[3.1.0]hexane-2-carboxamide] | ≥ 1000 nM |
| CN1c2ccccc2NC(=O)C1CC(C#N)NC(=O)[C@@H]1[C@@H]2[C@H](CN1C(=O)[C@@H](NC(=O)C(F)(F)F)C(C)(C)C)C2(C)C (stereo partly drawn) [Compound 187, (1R,2S,5S)—N-[1-Cyano-2-(1-methyl-3-oxo-2,4-dihydroquinoxalin-2-yl)ethyl]-3-[(2S)-3,3-dimethyl-2-[(2,2,2-trifluoroacetyl)amino]butanoyl]-6,6-dimethyl-3-azabicyclo[3.1.0]hexane-2-carboxamide] | ≥ 1000 nM |
| CC(C)(C)[C@H](NS(C)(=O)=O)C(=O)N1C[C@H]2[C@H]([C@H]1C(=O)NC(C#N)Cc1cc3cnccc3[nH]c1=O)C2(C)C (stereo partly drawn) [Compound 130, (1S,2S,5S)-N-[1-cyano-2-(2-oxo-1H-1,6-naphthyridin-3-yl)ethyl]-3-[(2S)-2-(methanesulfonamido)-3,3-dimethyl-butanoyl]-6,6-dimethyl-3-azabicyclo[3.1.0]hexane-2-carboxamide] | < 50 nM |
| Cn1cccc(CC(C#N)NC(=O)[C@@H]2C3[C@H](CN2C(=O)[C@@H](NC(=O)C(F)(F)F)C(C)(C)C)C3(C)C)c1=O (stereo in doubt) [Compound 112, (1R,2S,5S)—N-(1-Cyano-2-(1-methyl-2-oxo-1,2-dihydropyridin-3-yl)ethyl)-3-((S)-3,3-dimethyl-2-(2,2,2-trifluoroacetamido)butanoyl)-6,6-dimethyl-3-azabicyclo[3.1.0]hexane-2-carboxamide] | ≥ 1000 nM |
| Cc1ccc2[nH]c(=O)c(C[C@@H](C#N)NC(=O)[C@@H]3C4[C@H](CN3C(=O)[C@@H](Nc3nc(C)cs3)C(C)(C)C)C4(C)C)cc2c1 (stereo in doubt) [Compound 157, (1R,2S,5S)—N—((S)-1-Cyano-2-(6-methyl-2-oxo-1,2-dihydroquinolin-3-yl)ethyl)-3-((S)-3,3-dimethyl-2-((4-methylthiazol-2-yl)amino)butanoyl)-6,6-dimethyl-3-azabicyclo[3.1.0]hexane-2-carboxamide] | 250 to 500 nM |
| Cc1ccc2[nH]c(=O)c(CC(C#N)NC(=O)[C@H](Cc3ccccc3)NC(=O)[C@@H](NS(=O)(=O)CC(F)(F)F)C(C)(C)C)cc2c1 (stereo partly drawn) [Compound 164, (2S)—N-((2S)-1-((1-Cyano-2-(6-methyl-2-oxo-1,2-dihydroquinolin-3-yl)ethyl)amino)-1-oxo-3-phenylpropan-2-yl)-3,3-dimethyl-2-((2,2,2-trifluoroethyl)sulfonamido)butanamide] | 100 to 250 nM |
